Experimental data taken from paper PMC8699473, “An Easily Expandable Multi-Drug LC-MS Assay for the Simultaneous Quantification of 57 Oral Antitumor Drugs in Human Plasma” (Cancers, 2021).

Legend:
[1] = design: method as in supplement references [1-55] as printed per drug; conditions: minimum steady-state blood plasma concentration after multiple dose administration; ref supplement references [1-55] per drug; cited from earlier work
[2] = Freeze-thaw stability in spiked pooled human plasma; assay type: physicochemical
[3] = Autosampler stability of ready for injection samples; assay type: physicochemical, human
[4] = Long-term stability in spiked pooled human plasma
[5] = Short-term stability in spiked pooled human plasma (bench-top, 4 °C, 56 °C)

SMILES: O=C(Nc1cnn2ccc(N3CCC[C@@H]3c3cc(F)ccc3F)nc12)N1CC[C@H](O)C1 [Larotrectinib]
- cmin [1]: 5.14 ng/mL
- Freeze-Thaw Accuracy [%] ([2]; validation standard 2xLLOV): 100.6%
- Freeze-Thaw Accuracy [%] ([2]; validation standard LLOV): 97.9%
- Freeze-Thaw Accuracy [%] ([2]; validation standard MOV): 100.3%
- Freeze-Thaw Accuracy [%] ([2]; validation standard ULOV): 102.3%
- Autosampler (24h, 4°C) Accuracy [%] ([3]; validation standard 2xLLOV): 87.6%
- Autosampler (72h, 4°C) Accuracy [%] ([3]; validation standard 2xLLOV): 100.3%
- Autosampler (24h, 4°C) Accuracy [%] ([3]; validation standard LLOV): 79.4%
- Autosampler (72h, 4°C) Accuracy [%] ([3]; validation standard LLOV): 75.5%
- Autosampler (24h, 4°C) Accuracy [%] ([3]; validation standard MOV): 104.6%
- Autosampler (72h, 4°C) Accuracy [%] ([3]; validation standard MOV): 101.2%
- Autosampler (24h, 4°C) Accuracy [%] ([3]; validation standard ULOV): 102.3%
- Autosampler (72h, 4°C) Accuracy [%] ([3]; validation standard ULOV): 104.4%
- Long-term stability, 1 month, -20°C Accuracy [%] ([4]; validation standard 2xLLOV): 97.9%
- Long-term stability, 1 month, -80°C Accuracy [%] ([4]; validation standard 2xLLOV): 92.9%
- Long-term stability, 2 month, -20°C Accuracy [%] ([4]; validation standard 2xLLOV): 103.6%
- Long-term stability, 2 month, -80°C Accuracy [%] ([4]; validation standard 2xLLOV): 104.7%
- Long-term stability, 3 month, -20°C Accuracy [%] ([4]; validation standard 2xLLOV): 100.8%
- Long-term stability, 3 month, -80°C Accuracy [%] ([4]; validation standard 2xLLOV): 98.8%
- Long-term stability, 6 weeks, 4°C, without daylight Accuracy [%] ([4]; validation standard 2xLLOV): 106.7%
- Long-term stability, 1 month, -20°C Accuracy [%] ([4]; validation standard LLOV): 85.6%
- Long-term stability, 1 month, -80°C Accuracy [%] ([4]; validation standard LLOV): 87.5%
- Long-term stability, 2 month, -20°C Accuracy [%] ([4]; validation standard LLOV): 103.5%
- Long-term stability, 2 month, -80°C Accuracy [%] ([4]; validation standard LLOV): 102.1%
- Long-term stability, 3 month, -20°C Accuracy [%] ([4]; validation standard LLOV): 96.4%
- Long-term stability, 3 month, -80°C Accuracy [%] ([4]; validation standard LLOV): 94.2%
- Long-term stability, 6 weeks, 4°C, without daylight Accuracy [%] ([4]; validation standard LLOV): 115.2%
- Long-term stability, 1 month, -20°C Accuracy [%] ([4]; validation standard MOV): 96.7%
- Long-term stability, 1 month, -80°C Accuracy [%] ([4]; validation standard MOV): 97.2%
- Long-term stability, 2 month, -20°C Accuracy [%] ([4]; validation standard MOV): 99.1%
- Long-term stability, 2 month, -80°C Accuracy [%] ([4]; validation standard MOV): 103.2%
- Long-term stability, 3 month, -20°C Accuracy [%] ([4]; validation standard MOV): 96.2%
- Long-term stability, 3 month, -80°C Accuracy [%] ([4]; validation standard MOV): 91.1%
- Long-term stability, 6 weeks, 4°C, without daylight Accuracy [%] ([4]; validation standard MOV): 105.2%
- Long-term stability, 1 month, -20°C Accuracy [%] ([4]; validation standard ULOV): 95.0%
- Long-term stability, 1 month, -80°C Accuracy [%] ([4]; validation standard ULOV): 95.5%
- Long-term stability, 2 month, -20°C Accuracy [%] ([4]; validation standard ULOV): 102.5%
- Long-term stability, 2 month, -80°C Accuracy [%] ([4]; validation standard ULOV): 104.6%
- Long-term stability, 3 month, -20°C Accuracy [%] ([4]; validation standard ULOV): 97.8%
- Long-term stability, 3 month, -80°C Accuracy [%] ([4]; validation standard ULOV): 95.6%
- Long-term stability, 6 weeks, 4°C, without daylight Accuracy [%] ([4]; validation standard ULOV): 98.0%
- Short-time stability (1h, 56°C) Accuracy [%] ([5]; validation standard 2xLLOV): 58.9%
- Short-time stability (24h, 4°C, without daylight) Accuracy [%] ([5]; validation standard 2xLLOV): 104.3%
- Short-time stability (24h, RT, with daylight) Accuracy [%] ([5]; validation standard 2xLLOV): 109.3%
- Short-time stability (24h, RT, without daylight) Accuracy [%] ([5]; validation standard 2xLLOV): 102.4%
- Short-time stability (1h, 56°C) Accuracy [%] ([5]; validation standard LLOV): 44.4%
- Short-time stability (24h, 4°C, without daylight) Accuracy [%] ([5]; validation standard LLOV): 107.8%
- Short-time stability (24h, RT, with daylight) Accuracy [%] ([5]; validation standard LLOV): 115.6%
- Short-time stability (24h, RT, without daylight) Accuracy [%] ([5]; validation standard LLOV): 100.1%
- Short-time stability (1h, 56°C) Accuracy [%] ([5]; validation standard MOV): 58.2%
- Short-time stability (24h, 4°C, without daylight) Accuracy [%] ([5]; validation standard MOV): 99.9%
- Short-time stability (24h, RT, with daylight) Accuracy [%] ([5]; validation standard MOV): 106.3%
- Short-time stability (24h, RT, without daylight) Accuracy [%] ([5]; validation standard MOV): 110.8%
- Short-time stability (1h, 56°C) Accuracy [%] ([5]; validation standard ULOV): 50.9%
- Short-time stability (24h, 4°C, without daylight) Accuracy [%] ([5]; validation standard ULOV): 98.3%
- Short-time stability (24h, RT, with daylight) Accuracy [%] ([5]; validation standard ULOV): 105.3%
- Short-time stability (24h, RT, without daylight) Accuracy [%] ([5]; validation standard ULOV): 104.5%

SMILES: CCOc1cc2ncc(C#N)c(Nc3ccc(OCc4ccccn4)c(Cl)c3)c2cc1NC(=O)/C=C/CN(C)C [Neratinib]
- cmin [1]: 52.6 ng/mL
- Freeze-Thaw Accuracy [%] ([2]; validation standard 2xLLOV): 82.2%
- Freeze-Thaw Accuracy [%] ([2]; validation standard LLOV): 64.7%
- Freeze-Thaw Accuracy [%] ([2]; validation standard MOV): 88.9%
- Freeze-Thaw Accuracy [%] ([2]; validation standard ULOV): 87.2%
- Autosampler (24h, 4°C) Accuracy [%] ([3]; validation standard 2xLLOV): 95.7%
- Autosampler (72h, 4°C) Accuracy [%] ([3]; validation standard 2xLLOV): 100.1%
- Autosampler (24h, 4°C) Accuracy [%] ([3]; validation standard LLOV): 75.2%
- Autosampler (72h, 4°C) Accuracy [%] ([3]; validation standard LLOV): 73.8%
- Autosampler (24h, 4°C) Accuracy [%] ([3]; validation standard MOV): 103.1%
- Autosampler (72h, 4°C) Accuracy [%] ([3]; validation standard MOV): 100.5%
- Autosampler (24h, 4°C) Accuracy [%] ([3]; validation standard ULOV): 93.3%
- Autosampler (72h, 4°C) Accuracy [%] ([3]; validation standard ULOV): 96.0%
- Long-term stability, 1 month, -20°C Accuracy [%] ([4]; validation standard 2xLLOV): 79.9%
- Long-term stability, 1 month, -80°C Accuracy [%] ([4]; validation standard 2xLLOV): 84.9%
- Long-term stability, 2 month, -20°C Accuracy [%] ([4]; validation standard 2xLLOV): 67.5%
- Long-term stability, 2 month, -80°C Accuracy [%] ([4]; validation standard 2xLLOV): 94.6%
- Long-term stability, 3 month, -20°C Accuracy [%] ([4]; validation standard 2xLLOV): 70.3%
- Long-term stability, 3 month, -80°C Accuracy [%] ([4]; validation standard 2xLLOV): 90.2%
- Long-term stability, 6 weeks, 4°C, without daylight Accuracy [%] ([4]; validation standard 2xLLOV): 7.4%
- Long-term stability, 1 month, -20°C Accuracy [%] ([4]; validation standard LLOV): 66.9%
- Long-term stability, 1 month, -80°C Accuracy [%] ([4]; validation standard LLOV): 71.8%
- Long-term stability, 2 month, -20°C Accuracy [%] ([4]; validation standard LLOV): 77.1%
- Long-term stability, 2 month, -80°C Accuracy [%] ([4]; validation standard LLOV): 88.3%
- Long-term stability, 3 month, -20°C Accuracy [%] ([4]; validation standard LLOV): 50.3%
- Long-term stability, 3 month, -80°C Accuracy [%] ([4]; validation standard LLOV): 81.4%
- Long-term stability, 1 month, -20°C Accuracy [%] ([4]; validation standard MOV): 82.9%
- Long-term stability, 1 month, -80°C Accuracy [%] ([4]; validation standard MOV): 84.6%
- Long-term stability, 2 month, -20°C Accuracy [%] ([4]; validation standard MOV): 81.2%
- Long-term stability, 2 month, -80°C Accuracy [%] ([4]; validation standard MOV): 92.9%
- Long-term stability, 3 month, -20°C Accuracy [%] ([4]; validation standard MOV): 79.5%
- Long-term stability, 3 month, -80°C Accuracy [%] ([4]; validation standard MOV): 92.5%
- Long-term stability, 6 weeks, 4°C, without daylight Accuracy [%] ([4]; validation standard MOV): 10.0%
- Long-term stability, 1 month, -20°C Accuracy [%] ([4]; validation standard ULOV): 79.7%
- Long-term stability, 1 month, -80°C Accuracy [%] ([4]; validation standard ULOV): 78.2%
- Long-term stability, 2 month, -20°C Accuracy [%] ([4]; validation standard ULOV): 82.8%
- Long-term stability, 2 month, -80°C Accuracy [%] ([4]; validation standard ULOV): 88.3%
- Long-term stability, 3 month, -20°C Accuracy [%] ([4]; validation standard ULOV): 75.5%
- Long-term stability, 3 month, -80°C Accuracy [%] ([4]; validation standard ULOV): 91.8%
- Long-term stability, 6 weeks, 4°C, without daylight Accuracy [%] ([4]; validation standard ULOV): 8.5%
- Short-time stability (1h, 56°C) Accuracy [%] ([5]; validation standard 2xLLOV): -7.9%
- Short-time stability (24h, 4°C, without daylight) Accuracy [%] ([5]; validation standard 2xLLOV): 79.9%
- Short-time stability (24h, RT, with daylight) Accuracy [%] ([5]; validation standard 2xLLOV): 23.2%
- Short-time stability (24h, RT, without daylight) Accuracy [%] ([5]; validation standard 2xLLOV): 25.4%
- Short-time stability (1h, 56°C) Accuracy [%] ([5]; validation standard LLOV): -88.6%
- Short-time stability (24h, 4°C, without daylight) Accuracy [%] ([5]; validation standard LLOV): 65.9%
- Short-time stability (24h, RT, with daylight) Accuracy [%] ([5]; validation standard LLOV): -37.5%
- Short-time stability (24h, RT, without daylight) Accuracy [%] ([5]; validation standard LLOV): -39.1%
- Short-time stability (1h, 56°C) Accuracy [%] ([5]; validation standard MOV): 26.0%
- Short-time stability (24h, 4°C, without daylight) Accuracy [%] ([5]; validation standard MOV): 89.7%
- Short-time stability (24h, RT, with daylight) Accuracy [%] ([5]; validation standard MOV): 37.9%
- Short-time stability (24h, RT, without daylight) Accuracy [%] ([5]; validation standard MOV): 39.2%
- Short-time stability (1h, 56°C) Accuracy [%] ([5]; validation standard ULOV): 21.9%
- Short-time stability (24h, 4°C, without daylight) Accuracy [%] ([5]; validation standard ULOV): 81.3%
- Short-time stability (24h, RT, with daylight) Accuracy [%] ([5]; validation standard ULOV): 28.5%
- Short-time stability (24h, RT, without daylight) Accuracy [%] ([5]; validation standard ULOV): 31.5%
